Measured values as given in patent US20240391881A1, “PHARMACEUTICAL USE AND PREPARATION METHOD FOR SUBSTITUTED HETEROARYL PHTHALAZINE DERIVATIVE” (ORIGIANT PHARMACEUTICAL CO., LTD., priority 2021, published 2024).

These molecules were tested against T1, NLRP3 inflammasomes (Homo sapiens, UniProt Q96P20) (assay: THP-1 pyroptosis test (cell pyroptosis test)). Details: THP-1 cells differentiated with PMA, LPS stimulation, 10 μM nigericin, drug 0.001-10 μM, MTT absorbance 562 nm.
T1 construct: endogenous in cells; host or cells: THP-1 human monocytic cells, PMA-differentiated, LPS-primed, nigericin-stimulated
T1 sequence (Q96P20 whole entry): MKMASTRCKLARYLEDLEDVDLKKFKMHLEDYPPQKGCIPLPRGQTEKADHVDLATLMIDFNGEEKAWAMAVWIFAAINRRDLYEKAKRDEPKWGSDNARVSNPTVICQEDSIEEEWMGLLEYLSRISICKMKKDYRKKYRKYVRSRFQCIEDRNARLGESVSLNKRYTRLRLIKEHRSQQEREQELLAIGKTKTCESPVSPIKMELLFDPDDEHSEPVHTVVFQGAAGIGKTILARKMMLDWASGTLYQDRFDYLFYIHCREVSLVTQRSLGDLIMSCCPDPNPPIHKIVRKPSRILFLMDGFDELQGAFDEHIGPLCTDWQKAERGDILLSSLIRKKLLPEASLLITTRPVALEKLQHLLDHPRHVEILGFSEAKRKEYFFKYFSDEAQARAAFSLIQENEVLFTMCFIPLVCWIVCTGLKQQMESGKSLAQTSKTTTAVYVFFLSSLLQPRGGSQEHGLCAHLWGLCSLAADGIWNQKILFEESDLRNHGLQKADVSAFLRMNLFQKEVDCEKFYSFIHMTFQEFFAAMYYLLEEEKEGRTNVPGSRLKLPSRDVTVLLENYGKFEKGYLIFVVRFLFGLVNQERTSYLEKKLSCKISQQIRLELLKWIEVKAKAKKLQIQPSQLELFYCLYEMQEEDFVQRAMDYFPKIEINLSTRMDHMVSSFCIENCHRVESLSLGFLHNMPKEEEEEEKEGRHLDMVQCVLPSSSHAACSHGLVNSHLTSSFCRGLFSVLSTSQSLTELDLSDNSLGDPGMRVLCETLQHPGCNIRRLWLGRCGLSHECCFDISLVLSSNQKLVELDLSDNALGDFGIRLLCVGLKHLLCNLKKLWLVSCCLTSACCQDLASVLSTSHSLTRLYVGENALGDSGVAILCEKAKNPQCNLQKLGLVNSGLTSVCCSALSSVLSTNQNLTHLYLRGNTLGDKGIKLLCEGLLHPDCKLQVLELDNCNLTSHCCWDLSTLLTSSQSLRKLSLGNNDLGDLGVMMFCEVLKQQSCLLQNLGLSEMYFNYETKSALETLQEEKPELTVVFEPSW
Assay type: cell-based
Procedure: In vitro activity screening was performed on small molecule compounds targeting inhibition on NLRP3 inflammasomes using THP-1 human monocytic cells (THP-1). THP-1 can be induced to differentiate into macrophages by phorbol ester (PMA), and the macrophages M1 can be induced to polarize by lipopolysaccharide (LPS) to release cytokines such as TNF-α, and IL-6, so as to establish a typical inflammatory model.
THP-1 cells in a logarithmic growth phase were collected to prepare a 1×10^6 cells/mL cell suspension, PMA was added to achieve a final concentration of 300 ng/mL in the cell suspension, then 1×10^5 cells were inoculated to each well of a 96-well plate, and the cells were cultured in a 37° C., 5% CO2 cell incubator for 24 hours and induced to differentiate into macrophages.
The next day, LPS was added to stimulate and induce the cells to produce an inflammatory model. […] In the 200 μL system of the 96-well plate, the final concentration of each drug was 0.001-10 μM, and the final concentration of the nigericin was 10 μM.
Cell apoptosis protection rate=[(X−C0)/(C−C0)]×100%
wherein, C, C0 and X represent average absorbance values of the normal cell group, the blank control group, and the drug treatment group, respectively. Finally, cell survival curves were fitted by Graphpad Prism 5.0 software and EC50 values of the compounds to be tested in inhibiting pyroptosis caused by NLRP3 inflammasomes were calculated.
With `Cc1cnc2c(N[C@@H]3CCCN(C)C3)nnc(-c3ccc(C(F)(F)F)cc3O)c2c1` [Compound 48, 2-(3-methyl-8-{[(3R)-1-methylpiperidin-3-yl]amino}pyridino[2,3-d]pyridazin-5-yl)-5-(trifluoromethyl)phenol] the EC50 was < 20 nM.
In the case of `Cc1cnc2c(-c3ccc(C(F)(F)F)cc3O)nnc(N[C@@H]3CCCN(C)C3)c2c1` [Compound 49, 2-(3-methyl-5-{[(3R)-1-methylpiperidin-3-yl]amino}pyridino[2,3-d]pyridazin-8-yl)-5-(trifluoromethyl)phenol], the EC50 is reported as < 20 nM.
With `CCc1cnc2c(N[C@@H]3CCCN(C)C3)nnc(-c3ccc(C(F)(F)F)cc3O)c2c1` [Compound 50, (R)-2-(3-ethyl-8-((1-methylpiperidin-3-yl)amino)pyridino[2,3-d]pyridazin-5-yl)-5-(trifluoromethyl)phenol] the EC50 was < 20 nM.
`CCc1cnc2c(-c3ccc(C(F)(F)F)cc3O)nnc(N[C@@H]3CCCN(C)C3)c2c1` [Compound 51, (R)-2-(3-ethyl-5-((1-methylpiperidin-3-yl)amino)pyridino[2,3-d]pyridazin-8-yl)-5-(trifluoromethyl)phenol] gave an EC50 of 20 to 100 nM.
`Cc1ccc2c(-c3ccc(C(F)(F)F)cc3O)nnc(N[C@@H]3CCCN(C)C3)c2n1` [Compound 52, (R)-2-(2-methyl-8-((1-methylpiperidin-3-yl)amino)pyridino[2,3-d]pyridazin-5-yl)-5-(trifluoromethyl)phenol] was tested, and the EC50 was < 20 nM.
Work on `Cc1ccc2c(N[C@@H]3CCCN(C)C3)nnc(-c3ccc(C(F)(F)F)cc3O)c2n1` [Compound 53, (R)-2-(2-methyl-5-((1-methylpiperidin-3-yl)amino)pyridino[2,3-d]pyridazin-8-yl)-5-(trifluoromethyl)phenol] yielded an EC50 of 100 to 500 nM.
`CN1CCC[C@@H](Nc2nnc(-c3ccc(C(F)(F)F)cc3O)c3cscc23)C1` [Compound 54, (R)-2-(4-((1-methylpiperidin-3-yl)amino)thieno[3,4-d]pyridazin-1-yl)-5-(trifluoromethyl)phenol] was tested, and the EC50 was < 20 nM.
With `Cc1cnc2c(N[C@@H]3CCCN(C)C3)nnc(-c3ccc(F)cc3O)c2c1` [Compound 55, (R)-5-fluoro-2-(3-methyl-8-((1-methylpiperidin-3-yl)amino)pyridino[2,3-d]pyridazn-5-yl)phenol] the EC50 was < 20 nM.
For `Cc1cnc2c(N[C@@H]3CCCN(C)C3)nnc(-c3ccccc3O)c2c1` [Compound 56, (R)-2-(3-methyl-8-((1-methylpiperidin-3-yl)amino)pyridino[2,3-d]pyridazin-5-yl)phenol], the EC50 was < 20 nM.
For `Cc1nc2c(N[C@@H]3CCCN(C)C3)nnc(-c3ccc(C(F)(F)F)cc3O)c2n1C` [Compound 57], the EC50 was < 20 nM.
For `CN1CCC[C@@H](Nc2nnc(-c3ccc(C(F)(F)F)cc3O)c3c2nc(C(F)(F)F)n3C)C1` [Compound 58], the EC50 was < 20 nM.
`CN1CCC[C@@H](Nc2nnc(-c3ccc(C(F)(F)F)cc3O)c3c2nc(C2CC2)n3C)C1` [Compound 59] was tested, and the EC50 was < 20 nM.
With `Cc1ccc(-c2nnc(N[C@@H]3CCCN(C)C3)c3ncc(C)cc23)c(O)c1` [Compound 60, 5-methyl-2-(3-methyl-8-{[(3R)-1-methylpiperidin-3-yl]amino}pyridino[2,3-d]pyridazin-5-yl)phenol] the EC50 was < 20 nM.
`Cc1cnc2c(N[C@@H]3CCCN(C)C3)nnc(-c3ccc(OC(F)(F)F)cc3O)c2c1` [Compound 61, 2-(3-methyl-8-{[(3R)-1-methylpiperidin-3-yl]amino}pyridino[2,3-d]pyridazin-5-yl)-5-(trifluoromethoxy)phenol] was tested, and the EC50 was < 20 nM.
In the case of `CN1CCC[C@@H](Nc2nnc(-c3ccc(C(F)(F)F)cc3O)c3cnn(C)c23)C1` [Compound 62, (R)-2-(1-methyl-7-((1-methylpiperidin-3-yl)amino)-1H-pyrazolo[3,4-d]pyridazin-4-yl)-5-(trifluoromethyl)phenol], the EC50 is reported as < 20 nM.
`CN1CCC[C@@H](Nc2nnc(-c3ccc(C(F)(F)F)cc3O)c3c2cnn3C)C1` [Compound 63, (R)-2-(1-methyl-4-((1-methylpiperidin-3-yl)amino)-1H-pyrazolo[3,4-d]pyridazin-7-yl)-5-(trifluoromethyl)phenol] was tested, and the EC50 was < 20 nM.
In the case of `Cc1ccc(-c2nnc(N[C@@H]3CCCN(C)C3)c3c2cnn3C)c(O)c1` [Compound 64], the EC50 is reported as < 20 nM.
`Cc1ccc(-c2nnc(N[C@@H]3CCCN(C)C3)c3cnn(C)c23)c(O)c1` [Compound 65] was tested, and the EC50 was < 20 nM.
Work on `CN1C[C@H](Nc2nnc(-c3ccc(C(F)(F)F)cc3O)c3c2cnn3C)CCC1=O` [Compound 66] yielded an EC50 of 100 to 500 nM.
With `CN1CC(Nc2nnc(-c3ccc(C(F)(F)F)cc3O)c3cnn(C)c23)CCC1=O` (centres unmarked) [Compound 67] the EC50 was 100 to 500 nM.
Molecule `CN1CCC(Nc2nnc(-c3ccc(C(F)(F)F)cc3O)c3c2cnn3C)CC1` [Compound 68] has an EC50 of 500 to 1000 nM.
`CN1CCC(Nc2nnc(-c3ccc(F)cc3O)c3cnn(C)c23)CC1` [Compound 69] was tested, and the EC50 was > 1000 nM.
With `CN1CCC(Nc2nnc(-c3ccc(F)cc3O)c3c2cnn3C)CC1` [Compound 70] the EC50 was > 1000 nM.
For `CCN1CC[C@@H](CNc2nnc(-c3ccc(C(F)(F)F)cc3O)c3c2cnn3C)C1` [Compound 71], the EC50 was > 1000 nM.
Molecule `CN1CC[C@@H](Nc2nnc(-c3ccc(C(F)(F)F)cc3O)c3c2cnn3C)C1` [Compound 72] has an EC50 of 20 to 100 nM.
`Cn1ncc2c(NCCN3CCOCC3)nnc(-c3ccc(C(F)(F)F)cc3O)c21` [Compound 73] was tested, and the EC50 was 500 to 1000 nM.
In the case of `Cc1ccc(-c2nnc(NCCN3CCOCC3)c3c2cnn3C)c(O)c1` [Compound 74], the EC50 is reported as > 1000 nM.
`CN1CCC(CNc2nnc(-c3ccc(C(F)(F)F)cc3O)c3c2cnn3C)CC1` [Compound 75] was tested, and the EC50 was 100 to 500 nM.
In the case of `Cn1cnc2c(NCCN3CCOCC3)nnc(-c3ccc(C(F)(F)F)cc3O)c21` [Compound 76], the EC50 is reported as > 1000 nM.
For `Cn1cnc2c(-c3ccc(C(F)(F)F)cc3O)nnc(NCCN3CCOCC3)c21` [Compound 77], the EC50 was > 1000 nM.
In the case of `Cn1cnc2c(N[C@H]3CCc4ncccc43)nnc(-c3ccc(C(F)(F)F)cc3O)c21` [Compound 78], the EC50 is reported as > 1000 nM.
`Cn1cnc2c(N[C@H]3CCCc4ncccc43)nnc(-c3ccc(C(F)(F)F)cc3O)c21` [Compound 79] was tested, and the EC50 was > 1000 nM.
For `Cn1cnc2c(-c3ccc(C(F)(F)F)cc3O)nnc(NCC3CCOCC3)c21` [Compound 80], the EC50 was > 1000 nM.
`CN1CC(Nc2nnc(-c3ccc(C(F)(F)F)cc3O)c3ncn(C)c23)CCC1=O` (centres unmarked) [Compound 81] was tested, and the EC50 was > 1000 nM.
In the case of `Cn1cnc2c(NCCN3CCOCC3)nnc(-c3ccc(F)cc3O)c21` [Compound 82], the EC50 is reported as > 1000 nM.
With `CN1CCC[C@@H](Nc2nnc(-c3sccc3O)c3c2ncn3C)C1` [Compound 83] the EC50 was > 1000 nM.
`Cn1cnc2c(O[C@@H]3CCCN(CC(F)(F)F)C3)nnc(-c3ccc(C(F)(F)F)cc3O)c21` [Compound 84] was tested, and the EC50 was > 1000 nM.
In the case of `CN1CC[C@@H](Oc2nnc(-c3ccc(C(F)(F)F)cc3O)c3c2ncn3C)C1` [Compound 85], the EC50 is reported as > 1000 nM.
In the case of `CN1CCC[C@@H](Oc2nnc(-c3ccc(C(F)(F)F)cc3O)c3c2ncn3C)C1` [Compound 86], the EC50 is reported as > 1000 nM.
In the case of `CC(C)N1CCC[C@@H](Nc2nnc(-c3ccc(C(F)(F)F)cc3O)c3c2cnn3C)C1` [Compound 87], the EC50 is reported as < 20 nM.
Work on `CN1CCC[C@@H](Nc2nnc(-c3ccc(C(F)(F)F)cc3C(F)F)c3c2cnn3C)C1` [Compound 88] yielded an EC50 of 20 to 100 nM.
